Measured values from patent publication US10017542B2, “Antimicrobial peptides and methods of use thereof” (priority 2015, dated 2018).
Where a SMILES comes first, the peptide text is derived from it. Where no end group is shown, it is not given here. [ ]: non-standard residue; d: D form. Orn = NCCC[C@H](N)C(=O)O

Legend:
[1] = test system: Pseudomonas aeruginosa; assay: Killing of antibiotic resistant bacteria (FIG. 2); conditions: 1 hour time point after addition, single cell format
[2] = test system: Staphylococcus aureus; assay: Killing of antibiotic resistant bacteria (FIG. 2); conditions: 1 hour time point after addition, single cell format
[3] = test system: Clostridium difficile; assay: Killing of antibiotic resistant bacteria (FIG. 2); assay type: cell-based; conditions: 1 hour time point after addition, single cell format
[4] = test system: P. aeruginosa (G−) biofilm
Procedure: (§1) The Minimum Biofilm Eradication Concentration (MBEC) Assay was used. MBEC values provide estimates on the concentration of an antimicrobial product required to kill biofilm bacteria. The Calgary Biofilm Device (CBD) plate was used to effect biofilm formation on a lid containing 96 pegs. Bacterial cultures were grown and diluted in Tryptic Soy Broth (TSB) to approximately 1×10^7 CFU/mL before inoculation of the CBD plate, which was then incubated for 24 hr at 35° C. on a shaker at 125 rpm.
(§2) The peg lid containing biofilm was first rinsed in PBS to remove planktonic cells prior to treatment with 2-fold serial dilutions of test articles and control overnight at 35° C. The peg lid was rinsed in PBS twice before sonication in fresh media to disrupt biofilm adhered to the pegs. The plate was then incubated overnight to evaluate growth. Bacterial quantification was performed by measuring absorbance at 650 nm (A650). By definition, A650 reading of less than 0.1 indicates biofilm eradication.

[5] = test system: A. baumanii (G−) biofilm
Procedure: as §1, §2

[6] = test system: S. epidermis (G+) biofilm
Procedure: as §1, §2

[7] = test system: S. aureus MRSA (G+) biofilm
Procedure: as §1, §2

[8] = test system: B. thailandensis; conditions: concentration required to kill 50% of B. thailandensis; 10 mM phosphate buffer, 3 h, 37° C.
[9] = test system: E. cloaca; conditions: 24 h
Procedure: (§3) Measurement of antimicrobial and anti-fungal activity was determined by a standard micrometer dilution method. Briefly, cells were grown overnight in media specified for each strain, and were diluted in the same media. Serial dilutions of the peptides were added to microtiter plates in a volume of 50 ul, followed by the addition of 50 ul of bacteria or fungi, 5×10^5 CFU/ml. Plates were incubated at 37 degrees for 24 hours and the Minimum Inhibitory Concentrations (MICs) were determined as the lowest peptide concentration that inhibited 50% of bacterial growth.

[10] = test system: E. coli; conditions: 24 h
Procedure: as §3

[11] = test system: bacterial isolates of Table 7 (A. baumanii, E. coli, E. cloaca, Pseudomonas, Staphylococcus)
Procedure: (§4) Briefly, cells were grown overnight in media specified for each strain, and were diluted in the same media. Serial dilutions of the peptides were added to microtiter plates in a volume of 50 ul, followed by the addition of 50 ul of bacteria or fungi, 5×10^5 CFU/ml. Plates were incubated at 37 degrees for 24 hours and the Minimum Inhibitory Concentrations (MICs) were determined as the lowest peptide concentration that inhibited 50% of bacterial growth.

[12] = test system: fungal isolates of Table 8 (C. albicans, C. krusei, C. tropicalis)
Procedure: as §3

[13] = test system: C. albicans; conditions: 24 h
Procedure: as §4

[14] = test system: C. krusei; conditions: 24 h
Procedure: as §3

[15] = test system: C. tropicalis; conditions: 24 h
Procedure: as §3

Compound | killing of P. aeruginosa [1] | killing of C. difficile [3] | Average MBEC [4] | Average MBEC [5] | Average MBEC [6] | Average MBEC [7] | EC50 [8] | IC50 [12] | IC50 [14] | other results
CC[C@H](C)[C@H](NC(=O)[C@H](CS)NC(=O)[C@H](Cc1ccccc1)NC(=O)[C@H](CCCNC(=N)N)NC(=O)CNC(=O)[C@H](CC(C)C)NC(=O)[C@H](CS)NC(=O)[C@H](CC(C)C)NC(=O)[C@H](CCCCN)NC(=O)[C@H](C)NC(=O)[C@H](CCCNC(=N)N)NC(=O)[C@@H](NC(=O)[C@@H](N)CCCCN)[C@@H](C)CC)C(=O)N[C@@H](CCCNC(=N)N)C(=O)N[C@@H](C)C(=O)N[C@@H](CCCCN)C(=O)N[C@@H](CC(C)C)C(=O)N[C@@H](CCCNC(=N)N)C(=O)O [RP439, KIRAKLCLGRFCIRAKLR] (H-KIRAKLCLGRFCIRAKLR-OH) | effective in killing | effective in killing | – | – | – | – | – | – | – | killing of S. aureus [2]: effectively killed
C[C@H](NC(=O)[C@H](Cc1ccccc1)NC(=O)[C@H](C)NC(=O)[C@@H](N)Cc1ccccc1)C(=O)N[C@@H](Cc1ccccc1)C(=O)N[C@@H](CCCN)C(=O)N[C@@H](C)C(=O)N[C@@H](Cc1ccccc1)C(=O)N[C@@H](CCCN)C(=O)N[C@@H](CCCN)C(=O)N[C@@H](C)C(=O)N[C@@H](Cc1ccccc1)C(=O)N[C@@H](CCCN)C(=O)N[C@@H](CCCN)C(=O)N[C@@H](Cc1ccccc1)C(=O)N[C@@H](CCCN)C(=O)N[C@@H](CCCN)C(=O)N[C@@H](C)C(=O)N[C@@H](Cc1ccccc1)C(=O)N[C@@H](CCCN)C(=O)N[C@@H](CCCN)C(=O)N[C@@H](C)C(=O)N[C@@H](Cc1ccccc1)C(=O)O [RP443, FAFAFOAFOOAFOOFOOAFOOAF] (H-FAFAF[Orn]AF[Orn][Orn]AF[Orn][Orn]F[Orn][Orn]AF[Orn][Orn]AF-OH; N-terminus and C-terminus assumed) | – | – | 57.62 µM | 3.68 µM | 3.68 µM | 7.36 µM | 55.6 µM | – | – | –
C[C@H](NC(=O)[C@H](Cc1ccccc1)NC(=O)[C@H](C)NC(=O)[C@H](Cc1ccccc1)NC(=O)[C@H](CCCN)NC(=O)[C@H](C)NC(=O)[C@H](Cc1ccccc1)NC(=O)[C@H](CCCN)NC(=O)[C@H](CCCN)NC(=O)[C@H](C)NC(=O)[C@H](Cc1ccccc1)NC(=O)[C@H](CCCN)NC(=O)[C@H](CCCN)NC(=O)[C@H](Cc1ccccc1)NC(=O)[C@H](CCCN)NC(=O)[C@H](CCCN)NC(=O)[C@H](C)NC(=O)[C@H](Cc1ccccc1)NC(=O)[C@H](CCCN)NC(=O)[C@H](CCCN)NC(=O)[C@H](C)NC(=O)[C@@H](N)Cc1ccccc1)C(=O)N[C@@H](Cc1ccccc1)C(=O)O [RP444, FAOOFAOOFOOFAOOFAOFAFAF] (H-FA[Orn][Orn]FA[Orn][Orn]F[Orn][Orn]FA[Orn][Orn]FA[Orn]FAFAF-OH; N-terminus and C-terminus assumed) | – | – | 57.62 µM | 3.68 µM | 14.41 µM | 14.41 µM | 14.8 µM | – | – | –
CC[C@H](C)[C@H](NC(=O)[C@H](CCCNC(=N)N)NC(=O)[C@H](C)NC(=O)[C@H](CC(C)C)NC(=O)[C@H](CCCNC(=N)N)NC(=O)[C@@H](N)CS)C(=O)N[C@H](C(=O)N[C@@H](CS)C(=O)NCC(=O)NCC(=O)N[C@@H](Cc1ccccc1)C(=O)N[C@@H](C)C(=O)N[C@@H](CCCN)C(=O)N[C@@H](CCCN)C(=O)N[C@@H](Cc1ccccc1)C(=O)N[C@@H](C)C(=O)N[C@@H](CCCN)C(=O)N[C@@H](CCCN)C(=O)N[C@@H](Cc1ccccc1)C(=O)N[C@@H](CCCN)C(=O)N[C@@H](CCCN)C(=O)N[C@@H](Cc1ccccc1)C(=O)N[C@@H](C)C(=O)N[C@@H](CCCN)C(=O)N[C@@H](CCCN)C(=O)N[C@@H](Cc1ccccc1)C(=O)N[C@@H](C)C(=O)N[C@@H](CCCN)C(=O)N[C@@H](Cc1ccccc1)C(=O)N[C@@H](C)C(=O)N[C@@H](Cc1ccccc1)C(=O)N[C@@H](C)C(=O)N[C@@H](Cc1ccccc1)C(=O)O)C(C)C [RP501, CRLARIVCGGFAOOFAOOFOOFAOOFAOFAFAF] (H-CRLARIVCGGFA[Orn][Orn]FA[Orn][Orn]F[Orn][Orn]FA[Orn][Orn]FA[Orn]FAFAF-OH; N-terminus and C-terminus assumed) | – | – | – | – | – | – | – | – | – | IC50 [9]: 14.5 µM; IC50 [10]: 7.3 µM; IC50 [11]: 13.6 µM
CC[C@H](C)[C@H](NC(=O)CNC(=O)CNC(=O)[C@H](CS)NC(=O)[C@H](Cc1ccccc1)NC(=O)[C@H](CCCN)NC(=O)CNC(=O)[C@H](CC(C)C)NC(=O)[C@H](CS)NC(=O)CNC(=O)CNC(=O)[C@H](CC(C)C)NC(=O)[C@H](CCCN)NC(=O)[C@H](C)NC(=O)[C@H](CCCN)NC(=O)[C@@H](NC(=O)[C@H](CCCN)NC(=O)[C@@H](N)Cc1ccccc1)[C@@H](C)CC)C(=O)N[C@@H](CCCN)C(=O)N[C@@H](C)C(=O)N[C@@H](CCCN)C(=O)N[C@@H](CC(C)C)C(=O)N[C@@H](CCCN)C(=O)N[C@@H](Cc1ccccc1)C(=O)O [RP504, FOIOAOLGGCLGOFCGGIOAOLOF] (H-F[Orn]I[Orn]A[Orn]LGGCLG[Orn]FCGGI[Orn]A[Orn]L[Orn]F-OH; N-terminus and C-terminus assumed) | – | – | – | – | – | – | – | 23 µM | 2.7 µM | IC50 [13]: 43.3 µM; IC50 [10]: 10.8 µM; IC50 [11]: 17.6 µM
CC[C@H](C)[C@H](NC(=O)[C@H](C)NC(=O)[C@H](CCCN)NC(=O)[C@H](CCCN)NC(=O)[C@H](CCCN)NC(=O)[C@@H](NC(=O)[C@H](CCCN)NC(=O)[C@H](CC(C)C)NC(=O)[C@H](CCCN)NC(=O)[C@H](CCCN)NC(=O)[C@H](CCCN)NC(=O)[C@H](CCCN)NC(=O)[C@H](C)NC(=O)[C@H](CCCN)NC(=O)[C@H](CO)NC(=O)[C@H](CC(C)C)NC(=O)[C@@H](NC(=O)[C@H](CCCCN)NC(=O)[C@H](CC(C)C)NC(=O)[C@H](CC(C)C)NC(=O)[C@H](CO)NC(=O)[C@H](CCCN)NC(=O)[C@H](CC(C)C)NC(=O)[C@@H](N)CCCN)[C@@H](C)O)[C@@H](C)O)C(=O)N[C@@H](CO)C(=O)N[C@@H](CCCN)C(=O)O [RP505, OLOSLLKTLSOAOOOOLOTOOOAISO] (H-[Orn]L[Orn]SLLKTLS[Orn]A[Orn][Orn][Orn][Orn]L[Orn]T[Orn][Orn][Orn]AIS[Orn]-OH; N-terminus and C-terminus assumed) | – | – | – | – | – | – | – | 13.2 µM | 17.5 µM | IC50 [15]: 8.8 µM
C[C@H](N)C(=O)N[C@@H](Cc1ccccc1)C(=O)N[C@@H](C)C(=O)N[C@@H](Cc1ccccc1)C(=O)N[C@H](C(=O)N[C@@H](C)C(=O)N[C@@H](CCCN)C(=O)N[C@@H](CCCN)C(=O)N[C@@H](CCCN)C(=O)N[C@@H](Cc1ccccc1)C(=O)N[C@@H](C)C(=O)N[C@@H](CCCN)C(=O)N[C@@H](Cc1ccccc1)C(=O)N[C@@H](CCCN)C(=O)N[C@@H](C)C(=O)N[C@@H](CCCN)C(=O)N[C@@H](Cc1ccccc1)C(=O)N[C@@H](C)C(=O)N[C@@H](CC(N)=O)C(=O)N[C@@H](Cc1ccccc1)C(=O)N[C@@H](C)C(=O)N[C@@H](Cc1ccccc1)C(=O)N[C@@H](C)C(=O)NCC(=O)N[C@@H](Cc1ccccc1)C(=O)N[C@@H](CC(N)=O)C(=O)N[C@@H](C)C(=O)O)[C@@H](C)O [RP508, AFAFTAOOOFAOFOAOFANFAFAGFNA] (H-AFAFTA[Orn][Orn][Orn]FA[Orn]F[Orn]A[Orn]FANFAFAGFNA-OH; N-terminus and C-terminus assumed) | – | – | – | – | – | – | – | 46 µM | 38.3 µM | IC50 [13]: 38.3 µM
CN[C@H](CC(C)C)C(=O)N[C@H]1C(=O)N[C@@H](CC(N)=O)C(=O)N[C@H]2C(=O)N[C@H]3C(=O)N[C@H](C(=O)N[C@H](C(=O)O)c4cc(O)cc(O)c4-c4cc3ccc4O)[C@H](O)c3ccc(c(Cl)c3)Oc3cc2cc(c3O[C@@H]2O[C@H](CO)[C@@H](O)[C@H](O)[C@H]2O[C@H]2C[C@](C)(N)[C@H](O)[C@H](C)O2)Oc2ccc(cc2Cl)[C@H]1O [vancomycin, reference compound] | not effective | not effective | – | – | – | – | – | – | – | –
CPGFAKKFAKKFKKFAKKFAKFAFAF [RP438] | – | – | 51.43 µM | 6.45 µM | 12.89 µM | 12.89 µM | 11.2 µM | – | – | –
FAFAFAFKKAFKKFKKAFKKAF [RP442] | effective in killing | effective in killing | 234.28 µM | 1.87 µM | 14.68 µM | 14.68 µM | 0.95 µM | – | – | killing of S. aureus [2]: effectively killed
